Test results taken from US20240316000A1, “METHODS OF TREATMENT” (DIFFUSION PHARMACEUTICALS LLC, priority 2021, published 2024).

Columns and labels:
[1] = test system: healthy volunteers exercising at altitude; test: Crossover study in healthy volunteers exercising at simulated altitude of 15,000 feet (arterial blood gas, VO2 max, SpO2, lactate); type: in vivo, human
Description: This is a double-blind, randomized, placebo-controlled crossover study designed to investigate TSC's effects on oxygen enhancement using an experimental model to induce hypoxia in study participants. The primary endpoints measured in this study are maximal oxygen consumption and partial pressure of arterial blood oxygen in normal healthy volunteers subjected to incremental levels of physical exertion while exposed to hypoxic and hypobaric conditions at a simulated altitude of 15,000 feet above sea level. The secondary endpoints are to assess the effect of TSC on SpO2 and lactate.
A total of 30 healthy volunteers are enrolled in the trial with each subject serving as their own control by completing the experiment twice in a random, blinded order in the same day with a 3-hour rest and wash out period between experimental intervals. During one ascent, study subjects receive intravenous (IV) placebo administration and the other ascent the same subject receives a single IV dose of TSC at one of three dose levels (0.5 mg/kg, 1.5 mg/kg, or 2.5 mg/kg).
Primary analyses will be based on sequence matched changes in median PaO2 and median VO2 following a single administration of TSC versus placebo in subjects exposed to simulated altitude and undergoing exercise. This is a crossover design, repeated measures study where each subject will serve as their own control. Each subject will be randomized to a TSC dose and will also be randomized to their altitude exposure sequence on the day of testing.

[2] = Stability of TSC versus pH; type: physicochemical
[3] = Solubility of TSC in water with gamma-cyclodextrin; type: physicochemical
[4] = Absorption after intramuscular injection of TSC with gamma cyclodextrin; type: in vivo; details: injected intramuscularly with gamma cyclodextrin; rats
hemorrhagic shock = details: after hemorrhagic shock in rats; cited from earlier work
[5] = 2.5 mg/kg, end of exercise and 10 minutes post-exercise
[6] = change last exercise to 10-minutes post-exercise, 2.5 mg/kg vs other TSC doses and placebo
[7] = last exercise value minus baseline, 2.5 mg/kg vs other TSC doses and placebo
[8] = last exercise value, 2.5 mg/kg vs other TSC doses and placebo

Stability as a function of pH [2]: more stable at higher pHs | TSC content of solutions ([3]; formulated with a cyclodextrin and mannitol): over 20 mg TSC/ml of solution | Absorption into the blood stream [4]: Absorption is quick
Compound: CC(/C=C/C=C(\C)C(=O)[O-])=C\C=C\C=C(C)\C=C\C=C(/C)C(=O)O.[Na+] [TSC, trans sodium crocetinate]
Post-exercise recovery (pH, lactate, SpO2 and other markers) ([1]; 2.5 mg/kg, 10 minutes post-exercise versus last exercise measurements): positive effect on post-exercise recovery | Blood pH following exercise under hypoxic conditions [1, 5]: increase in pH | Lactate following exercise under hypoxic conditions [1, 5]: decrease in lactate | Effects on pH at the end of the exercise period versus baseline, compared to placebo ([1]; 2.5 mg/kg, p<0.1): significantly different | Intra-day maximal oxygen consumption tests ([1]; 0.5, 1.5, 2.5 mg/kg IV): no observed changes | Partial pressure of arterial blood oxygen ([1]; 0.5, 1.5, 2.5 mg/kg IV): no observed changes | pH, least square mean ([1]; 10-minute post-exercise change from baseline (smallest reduction), 2.5 mg/kg vs other TSC doses and placebo, p=0.01 vs placebo): highest least square mean value | HCO3, least square mean ([1]; 10-minute post-exercise change from baseline, 2.5 mg/kg vs other TSC doses and placebo): highest least square mean value | Lactic acid, least square mean ([1]; 10-minute post-exercise change from baseline, 2.5 mg/kg vs other TSC doses and placebo, p<0.05 vs 0.5 mg/kg): lowest least square mean value | Oxygen saturation, least square mean ([1]; 10-minute post-exercise change from baseline, 2.5 mg/kg vs other TSC doses and placebo, p<0.05 vs 0.5 mg/kg, p=0.01 vs placebo): highest least square mean value | PAO2, least square mean ([1]; 10-minute post-exercise change from baseline, 2.5 mg/kg vs other TSC doses and placebo, separates statistically from 0.5 mg/kg): highest least square mean value | pH, change ([1]; change last exercise to 10-minutes post-exercise, 2.5 mg/kg): smallest change | Lactic acid, least square mean ([1]; change last exercise to 10-minutes post-exercise, 2.5 mg/kg and 1.5 mg/kg vs other TSC doses and placebo): lowest least square mean value | HCO3, least square mean [1, 6]: highest least square mean value | Oxygen saturation, least square mean [1, 6]: highest least square mean value | PACO2, least square mean [1, 6]: highest least square mean value | PAO2, least square mean [1, 6]: highest least square mean value | PAO2, least square mean ([1]; last exercise value minus baseline, 0.5 mg/kg TSC dose and placebo vs other TSC doses): lowest least square mean value | HCO3, least square mean [1, 7]: highest least square mean value | Oxygen saturation, least square mean [1, 7]: lowest least square mean value | VO2 maximum, least square mean [1, 7]: lowest least square mean value | pH, least square mean ([1]; last exercise value minus baseline, 2.5 mg/kg vs other TSC doses and placebo, separates statistically from 0.5 mg/kg): highest least square mean value | Lactic acid, least square mean ([1]; last exercise value minus baseline, 2.5 mg/kg vs other TSC doses and placebo, trend lower with dose): lowest least square mean value | PACO2, least square mean [1, 8]: highest least square mean value | pH, least square mean [1, 8]: highest least square mean value | Lactic acid, least square mean ([1]; last exercise value, 2.5 mg/kg vs other TSC doses and placebo, p<0.1 vs 0.5 mg/kg, trend lower with dose): lowest least square mean value | Oxygen saturation, least square mean ([1]; last exercise value, 2.5 mg/kg vs other TSC doses and placebo, p<0.1 vs 1.5 mg/kg): lowest least square mean value | HCO3, least square mean ([1]; last exercise value, 2.5 mg/kg vs other TSC doses and placebo, separates statistically from 0.5 mg/kg): highest least square mean value | PAO2, least square mean ([1]; last exercise value, 2.5 mg/kg vs other TSC doses and placebo, separates statistically from 1.5 mg/kg): lowest least square mean value | Sequence effect in subjects who received TSC in the first ascent of the day ([1]; pH change from baseline, p<0.05 placebo first vs second): carry-over | Oxygen saturation, least square mean ([1]; post-exercise value, 2.5 mg/kg vs other TSC doses and placebo): highest least square mean value | PACO2, least square mean ([1]; post-exercise value, 2.5 mg/kg vs other TSC doses and placebo, p<0.05 vs 0.5 mg/kg): highest least square mean value | Lactic acid, least square mean ([1]; post-exercise value, 2.5 mg/kg vs other TSC doses and placebo, p<0.05 vs 0.5 mg/kg, p=0.01 vs placebo): lowest least square mean value | pH, least square mean ([1]; post-exercise value, 2.5 mg/kg vs other TSC doses and placebo, separates from 0.5 mg/kg, p=0.01 vs placebo): highest least square mean value | HCO3, least square mean ([1]; post-exercise value, 2.5 mg/kg vs other TSC doses and placebo, separates statistically from 0.5 mg/kg): highest least square mean value | TSC content of aqueous solutions ([3]; TSC and gamma-cyclodextrin): ≤ 44 milligrams of TSC per ml of solution | Whole-body oxygen consumption (hemorrhagic shock): increase whole-body oxygen consumption
